Tests used:
Format in all cases: biochemical
PI3K β = target: T1, PI3K β (Homo sapiens, UniProt P42338); test: PI3-kinase HTRF inhibition assay, PI3K β; conditions: in vitro
T1 construct: purchased Upstate
Method: (§1) Commercial kits or systems for assaying PI3-K activities are available. The commercially available kits or systems can be used to screen for inhibitors and/or agonists of PI3-Ks including but not limited to PI 3-Kinase α, β, δ, and γ. Anr exemplary system is PI 3-Kinase (human) HTRF™ Assay from Upstate. […] Briefly, the assay is a time resolved FRET assay that indirectly measures PIP3 product formed by the activity of a PI3-K. The kinase reaction is performed in a microtitre plate (e.g., a 384 well microtitre plate). The total reaction volume is approximately 20 ul per well. In the first step, each well receives 2 ul of test compound in 20% dimethylsulphoxide resulting in a 2% DMSO final concentration. Next, approximately 14.5 ul of a kinase/PIP2 mixture (diluted in 1× reaction buffer) is added per well for a final concentration of 0.25-0.3 ug/ml kinase and 10 μM PIP2. The plate is sealed and incubated for 15 minutes at room temperature. To start the reaction, 3.5 ul of ATP (diluted in 1× reaction buffer) is added per well for a final concentration of 10 μM ATP. The plate is sealed and incubated for 1 hour at room temperature. The reaction is stopped by adding 5ul of Stop Solution per well and then 5 ul of Detection Mix is added per well. The plate is sealed, incubated for 1 hour at room temperature, and then read on an appropriate plate reader. Data is analyzed and IC50s are generated using GraphPad Prism 5. For PI3K α, β, δ, and γ, the nM concentration of inhibitor to reach IC50 is provided Inhibition of PI3K a at lower concentrations than those for β, δ, and γ provides evidence of specificity within this group of kinases. Similar assays, and others known in the art, can be used to measure the percent inhibition of other kinases, including but not limited to PI3K class II kinases, phosphoinositide 4 kinases (PI4K), and phosphoinositide 5 kinases (PI5K).

PI3K γ = target: T2, PI3K γ (Homo sapiens, UniProt P48736); test: PI3-kinase HTRF inhibition assay, PI3K γ; conditions: in vitro
T2 construct: purchased Upstate
Method: as §1

PI3K δ = target: T3, PI3K δ (Homo sapiens, UniProt O00329); test: PI3-kinase HTRF inhibition assay, PI3K δ; conditions: in vitro
T3 construct: purchased Upstate
Method: as §1

PI3K α = target: T4, PI3K α (Homo sapiens, UniProt P42336); test: PI3-kinase HTRF inhibition assay, PI3K α; conditions: in vitro
T4 construct: purchased Upstate
Method: as §1

mTORC = target: T5, mTORC (Homo sapiens, UniProt P42345); test: mTOR inhibition assay (in vitro IC50)
T5 construct: purchased Invitrogen
Method: The cross-activity or lack thereof of one or more compounds of the present invention against mTor can be measured according to any procedures known in the art or methods disclosed below. The compounds described herein can be tested against recombinant mTOR (Invitrogen) in an assay containing 50 mM HEPES, pH 7.5, 1 mM EGTA, 10 mM MgCl2, 2.5 mM, 0.01% Tween, 10 μM ATP (2.5 μCi of […]), and 3 μg/mL BSA. Rat recombinant PHAS-1/4EBP1 (Calbiochem; 2 mg/mL) is used as a substrate. Reactions are terminated by spotting onto nitrocellulose, which is washed with 1M NaCl/1% phosphoric acid (approximately 6 times, 5-10 minutes each). Sheets are dried and the transferred radioactivity quantitated by phosphorimaging.
Other kits or systems for assaying mTOR activity are commercially available. For instance, one can use Invitrogen's LanthaScreen™ Kinase assay to test the inhibitors of mTOR disclosed herein. This assay is a time resolved FRET platform that measures the phosphorylation of GFP labeled 4EBP1 by mTOR kinase. The kinase reaction is performed in a white 384 well microtitre plate. The total reaction volume is 20 ul per well and the reaction buffer composition is 50 mM HEPES pH7.5, 0.01% Polysorbate 20, 1 mM EGTA, 10 mM MnCl2, and 2 mM DTT. In the first step, each well receives 2 ul of test compound in 20% dimethylsulphoxide resulting in a 2% DMSO final concentration. Next, 8 ul of mTOR diluted in reaction buffer is added per well for a 60 ng/ml final concentration. To start the reaction, 10 ul of an ATP/GFP-4EBP1 mixture (diluted in reaction buffer) is added per well for a final concentration of 10 μM ATP and 0.5 μM GFP-4EBP1. The plate is sealed and incubated for 1 hour at room temperature. The reaction is stopped by adding 10 ul per well of a Tb-anti-pT46 4EBP1 antibody/EDTA mixture (diluted in TR-FRET buffer) for a final concentration of 1.3 nM antibody and 6.7 mM EDTA. The plate is sealed, incubated for 1 hour at room temperature, and then read on a plate reader set up for LanthaScreen™ TR-FRET. Data is analyzed and IC50s are generated using GraphPad Prism 5.

T2 sequence (P48736 whole entry): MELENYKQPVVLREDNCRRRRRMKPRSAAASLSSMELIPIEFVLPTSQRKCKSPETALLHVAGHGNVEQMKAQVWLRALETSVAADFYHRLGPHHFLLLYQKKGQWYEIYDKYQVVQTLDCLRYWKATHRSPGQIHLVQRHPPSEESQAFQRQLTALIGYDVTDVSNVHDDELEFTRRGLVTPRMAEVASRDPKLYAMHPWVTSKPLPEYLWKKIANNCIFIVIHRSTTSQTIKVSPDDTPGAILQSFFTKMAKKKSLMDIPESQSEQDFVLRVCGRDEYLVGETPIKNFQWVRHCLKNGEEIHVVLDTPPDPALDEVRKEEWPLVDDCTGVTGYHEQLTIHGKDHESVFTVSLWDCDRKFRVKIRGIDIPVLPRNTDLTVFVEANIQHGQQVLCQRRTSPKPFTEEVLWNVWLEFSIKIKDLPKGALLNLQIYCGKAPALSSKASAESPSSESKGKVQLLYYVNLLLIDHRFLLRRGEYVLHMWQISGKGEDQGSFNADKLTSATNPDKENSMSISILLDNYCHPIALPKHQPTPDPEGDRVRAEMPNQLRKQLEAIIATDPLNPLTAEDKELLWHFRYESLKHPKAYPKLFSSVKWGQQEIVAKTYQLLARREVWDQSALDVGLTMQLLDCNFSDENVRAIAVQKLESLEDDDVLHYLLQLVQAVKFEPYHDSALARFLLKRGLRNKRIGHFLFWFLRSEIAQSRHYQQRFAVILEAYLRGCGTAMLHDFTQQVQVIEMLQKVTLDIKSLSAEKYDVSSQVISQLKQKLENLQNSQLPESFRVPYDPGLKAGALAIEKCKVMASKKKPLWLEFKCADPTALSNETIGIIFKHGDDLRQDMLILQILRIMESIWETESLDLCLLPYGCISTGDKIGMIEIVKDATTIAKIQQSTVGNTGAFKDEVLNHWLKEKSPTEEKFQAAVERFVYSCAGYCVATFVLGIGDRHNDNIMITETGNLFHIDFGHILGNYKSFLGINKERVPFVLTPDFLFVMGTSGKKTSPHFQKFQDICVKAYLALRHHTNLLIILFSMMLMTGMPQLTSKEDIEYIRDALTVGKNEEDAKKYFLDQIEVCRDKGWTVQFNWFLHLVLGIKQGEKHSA
T1 sequence (P42338 whole entry): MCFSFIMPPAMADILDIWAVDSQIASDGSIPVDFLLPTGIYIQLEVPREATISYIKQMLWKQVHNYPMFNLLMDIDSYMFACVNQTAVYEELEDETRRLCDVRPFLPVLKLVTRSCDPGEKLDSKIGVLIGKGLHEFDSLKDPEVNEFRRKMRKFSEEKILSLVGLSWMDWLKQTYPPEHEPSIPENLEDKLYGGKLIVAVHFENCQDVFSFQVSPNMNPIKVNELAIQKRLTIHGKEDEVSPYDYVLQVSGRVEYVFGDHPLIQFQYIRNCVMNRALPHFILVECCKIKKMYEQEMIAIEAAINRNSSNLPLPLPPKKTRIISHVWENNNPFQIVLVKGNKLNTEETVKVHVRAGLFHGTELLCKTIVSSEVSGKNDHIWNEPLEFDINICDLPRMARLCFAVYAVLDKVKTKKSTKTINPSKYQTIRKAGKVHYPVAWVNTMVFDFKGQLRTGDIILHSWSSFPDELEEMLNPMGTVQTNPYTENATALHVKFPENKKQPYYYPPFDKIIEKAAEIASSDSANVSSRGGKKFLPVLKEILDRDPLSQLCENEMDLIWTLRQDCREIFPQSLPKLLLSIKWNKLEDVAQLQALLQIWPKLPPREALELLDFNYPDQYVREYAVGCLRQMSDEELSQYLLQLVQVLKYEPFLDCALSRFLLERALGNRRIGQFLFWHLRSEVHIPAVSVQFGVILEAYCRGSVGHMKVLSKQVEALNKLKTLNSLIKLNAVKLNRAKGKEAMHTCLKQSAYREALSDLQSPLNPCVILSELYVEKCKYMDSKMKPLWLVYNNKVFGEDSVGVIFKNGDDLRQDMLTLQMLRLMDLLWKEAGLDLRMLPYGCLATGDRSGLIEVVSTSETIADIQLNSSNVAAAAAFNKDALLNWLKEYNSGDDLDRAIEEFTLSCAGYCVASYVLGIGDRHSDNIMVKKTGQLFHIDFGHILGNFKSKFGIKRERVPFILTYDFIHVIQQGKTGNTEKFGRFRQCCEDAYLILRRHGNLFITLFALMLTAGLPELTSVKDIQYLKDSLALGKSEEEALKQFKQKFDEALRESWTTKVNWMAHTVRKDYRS
T1 sequence (P27986 whole entry partner): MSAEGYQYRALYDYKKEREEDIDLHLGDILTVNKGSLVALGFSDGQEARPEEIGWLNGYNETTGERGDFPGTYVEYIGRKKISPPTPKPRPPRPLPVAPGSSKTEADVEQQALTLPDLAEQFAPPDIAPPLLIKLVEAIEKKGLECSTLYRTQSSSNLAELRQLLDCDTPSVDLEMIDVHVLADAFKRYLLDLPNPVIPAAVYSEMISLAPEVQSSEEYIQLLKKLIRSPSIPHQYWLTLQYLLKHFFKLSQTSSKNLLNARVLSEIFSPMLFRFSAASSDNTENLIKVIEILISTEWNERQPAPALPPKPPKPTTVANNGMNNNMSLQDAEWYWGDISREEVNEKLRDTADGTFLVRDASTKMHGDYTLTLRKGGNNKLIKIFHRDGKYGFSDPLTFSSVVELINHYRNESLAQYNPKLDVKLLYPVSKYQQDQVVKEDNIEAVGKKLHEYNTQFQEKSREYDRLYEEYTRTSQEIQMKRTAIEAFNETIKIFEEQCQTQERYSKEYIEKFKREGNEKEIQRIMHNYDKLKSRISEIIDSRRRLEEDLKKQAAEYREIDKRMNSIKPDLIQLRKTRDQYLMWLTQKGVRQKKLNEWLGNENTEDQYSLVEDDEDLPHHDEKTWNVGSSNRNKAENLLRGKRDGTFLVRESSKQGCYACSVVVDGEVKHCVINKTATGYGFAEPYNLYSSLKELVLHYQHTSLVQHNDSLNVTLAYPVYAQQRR
T3 sequence (O00329 whole entry): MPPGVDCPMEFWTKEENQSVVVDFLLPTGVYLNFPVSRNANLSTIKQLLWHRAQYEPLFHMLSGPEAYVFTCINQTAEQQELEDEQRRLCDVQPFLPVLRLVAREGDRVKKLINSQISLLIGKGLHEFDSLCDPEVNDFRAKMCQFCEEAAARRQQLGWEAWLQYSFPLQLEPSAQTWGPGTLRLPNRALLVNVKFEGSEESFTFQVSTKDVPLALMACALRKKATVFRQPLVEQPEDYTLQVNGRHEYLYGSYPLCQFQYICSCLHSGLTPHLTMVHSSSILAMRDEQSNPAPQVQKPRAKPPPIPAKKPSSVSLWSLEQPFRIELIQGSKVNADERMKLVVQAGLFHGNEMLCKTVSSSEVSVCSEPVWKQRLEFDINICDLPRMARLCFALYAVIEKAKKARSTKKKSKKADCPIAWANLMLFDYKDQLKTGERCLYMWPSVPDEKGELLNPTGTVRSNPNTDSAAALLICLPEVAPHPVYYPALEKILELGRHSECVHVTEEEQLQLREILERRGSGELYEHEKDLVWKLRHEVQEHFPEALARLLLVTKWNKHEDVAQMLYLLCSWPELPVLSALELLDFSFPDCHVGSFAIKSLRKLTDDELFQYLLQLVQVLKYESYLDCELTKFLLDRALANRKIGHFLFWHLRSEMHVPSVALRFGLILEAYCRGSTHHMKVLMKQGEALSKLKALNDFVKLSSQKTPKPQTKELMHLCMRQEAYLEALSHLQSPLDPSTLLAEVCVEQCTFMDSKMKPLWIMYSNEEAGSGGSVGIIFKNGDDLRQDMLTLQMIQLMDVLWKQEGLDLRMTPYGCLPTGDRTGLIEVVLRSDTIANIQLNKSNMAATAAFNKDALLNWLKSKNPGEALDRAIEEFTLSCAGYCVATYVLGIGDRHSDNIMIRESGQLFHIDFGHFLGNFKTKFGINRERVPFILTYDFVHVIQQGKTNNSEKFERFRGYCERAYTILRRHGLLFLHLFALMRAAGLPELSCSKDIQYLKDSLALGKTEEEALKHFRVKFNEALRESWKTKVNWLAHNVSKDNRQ
T3 sequence (P27986 whole entry partner): as the sequence (P27986 whole entry partner) above
T4 sequence (P42336 whole entry): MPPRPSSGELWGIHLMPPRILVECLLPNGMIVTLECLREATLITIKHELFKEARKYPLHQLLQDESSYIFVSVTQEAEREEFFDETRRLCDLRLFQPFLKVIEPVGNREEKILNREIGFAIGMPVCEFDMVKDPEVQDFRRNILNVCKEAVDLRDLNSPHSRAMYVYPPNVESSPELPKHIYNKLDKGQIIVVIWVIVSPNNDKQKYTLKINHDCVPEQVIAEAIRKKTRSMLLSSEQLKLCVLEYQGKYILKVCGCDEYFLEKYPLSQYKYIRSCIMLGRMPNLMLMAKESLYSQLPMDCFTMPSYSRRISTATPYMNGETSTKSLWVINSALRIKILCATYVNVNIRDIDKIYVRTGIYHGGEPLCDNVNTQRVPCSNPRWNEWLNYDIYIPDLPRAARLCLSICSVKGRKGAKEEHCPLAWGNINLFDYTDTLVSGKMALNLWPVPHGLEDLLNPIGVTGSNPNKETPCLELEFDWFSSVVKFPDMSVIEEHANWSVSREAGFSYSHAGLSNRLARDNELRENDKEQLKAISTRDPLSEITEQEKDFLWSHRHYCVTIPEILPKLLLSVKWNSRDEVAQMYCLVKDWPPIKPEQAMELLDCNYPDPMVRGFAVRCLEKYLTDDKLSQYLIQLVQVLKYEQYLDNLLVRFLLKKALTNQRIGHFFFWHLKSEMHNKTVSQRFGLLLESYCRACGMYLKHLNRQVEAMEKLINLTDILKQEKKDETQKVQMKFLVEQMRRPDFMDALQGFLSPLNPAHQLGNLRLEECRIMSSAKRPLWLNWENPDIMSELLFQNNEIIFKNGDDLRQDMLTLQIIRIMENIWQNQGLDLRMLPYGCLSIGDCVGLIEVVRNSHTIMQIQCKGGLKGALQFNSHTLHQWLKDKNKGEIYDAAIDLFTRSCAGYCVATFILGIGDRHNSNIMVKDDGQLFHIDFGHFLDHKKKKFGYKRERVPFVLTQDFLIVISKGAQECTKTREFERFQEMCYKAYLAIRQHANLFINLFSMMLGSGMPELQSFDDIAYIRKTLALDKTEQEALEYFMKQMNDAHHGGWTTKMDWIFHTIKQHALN
T4 sequence (P27986 whole entry partner): as the sequence (P27986 whole entry partner) above

Compound: Cc1ncc(-c2ccc3ncc(C(=O)N4CCOCC4)n3c2)c2cn[nH]c12 [Compound 1]
- IC50 (PI3K β): > 10 µM
- IC50 (PI3K γ): > 10 µM
- IC50 (PI3K δ): < 10 µM
- IC50 (PI3K α): < 0.1 µM

Compound: [2H]c1c(-c2ccc3ncc(C(=O)N4CCOCC4)n3c2)c([2H])c2nc(N)oc2c1[2H] [Compound 2]
- IC50 (PI3K β): < 10 µM
- IC50 (PI3K γ): < 0.1 µM
- IC50 (PI3K δ): > 10 µM
- IC50 (PI3K α): < 0.1 µM

Compound: O=C(c1cnc2ccc(-c3ccnc4[nH]ncc34)cn12)N1CCOCC1 [Compound 3]
- IC50 (mTORC): > 10 µM
- IC50 (PI3K β): > 10 µM
- IC50 (PI3K γ): > 10 µM
- IC50 (PI3K δ): > 10 µM
- IC50 (PI3K α): < 10 µM

Compound: CN1CC2CN(C(=O)c3cnc4ccc(-c5ccc6oc(N)nc6c5)cn34)CC2C1 (stereo not shown) [Compound 4]
- IC50 (mTORC): > 10 µM
- IC50 (PI3K β): < 1 µM
- IC50 (PI3K γ): < 1 µM
- IC50 (PI3K δ): < 1 µM
- IC50 (PI3K α): < 0.1 µM

Compound: O=C(c1cnc2ccc(-c3cnc4cc[nH]c4c3)cn12)N1CCOCC1 [Compound 5]
- IC50 (PI3K β): > 10 µM
- IC50 (PI3K γ): > 10 µM
- IC50 (PI3K δ): > 10 µM
- IC50 (PI3K α): < 10 µM

Compound: O=C(c1cnc2ccc(-c3cnc4cn[nH]c4c3)cn12)N1CCOCC1 [Compound 6]
- IC50 (PI3K β): > 10 µM
- IC50 (PI3K γ): > 10 µM
- IC50 (PI3K δ): > 10 µM

Compound: Cc1ncc(-c2ccc3ncc(C(=O)N4CCOCC4)n3c2)c2cc[nH]c12 [Compound 7]
- IC50 (PI3K β): > 10 µM
- IC50 (PI3K γ): > 10 µM
- IC50 (PI3K δ): > 10 µM
- IC50 (PI3K α): < 10 µM

Compound: Cn1ncc2c(-c3ccc4ncc(C(=O)N5CCOCC5)n4c3)cncc21 [Compound 8]
- IC50 (PI3K β): > 10 µM
- IC50 (PI3K γ): < 10 µM
- IC50 (PI3K δ): > 10 µM
- IC50 (PI3K α): < 10 µM

Compound: Cc1ncc(-c2ccc3ncc(C(=O)N4C5CCC4COC5)n3c2)c2cn[nH]c12 [Compound 9]
- IC50 (mTORC): > 10 µM
- IC50 (PI3K β): > 10 µM
- IC50 (PI3K γ): > 10 µM
- IC50 (PI3K δ): < 10 µM
- IC50 (PI3K α): < 0.1 µM

Compound: O=C(c1cnc2ccc(-c3cncc4c3cnn4CCO)cn12)N1CCOCC1 [Compound 10]
- IC50 (PI3K β): > 10 µM
- IC50 (PI3K γ): > 10 µM
- IC50 (PI3K δ): > 10 µM
- IC50 (PI3K α): > 10 µM

Compound: Nc1nc2cc(-c3cnc4ccc(C(=O)N5C6CCC5COC6)cn34)ccc2o1 [Compound 11]
- IC50 (PI3K β): > 10 µM
- IC50 (PI3K γ): > 10 µM
- IC50 (PI3K δ): > 10 µM
- IC50 (PI3K α): > 10 µM

Compound: Nc1nc2cc(-c3cnc4ccc(C(=O)N5CCOCC5)cn34)ccc2o1 [Compound 12]
- IC50 (PI3K β): > 10 µM
- IC50 (PI3K δ): > 10 µM
- IC50 (PI3K α): > 10 µM

Compound: CN1CCN(c2nnc3ccc(-c4ccc5nc(N)oc5c4)cn23)CC1 [Compound 13]
- IC50 (PI3K β): > 10 µM
- IC50 (PI3K γ): > 10 µM
- IC50 (PI3K δ): > 10 µM
- IC50 (PI3K α): > 10 µM

Compound: Cc1cc(-c2ccc3nc(N)oc3c2)cn2c(-c3ccncc3)nnc12 [Compound 14]
- IC50 (PI3K β): < 10 µM
- IC50 (PI3K γ): > 10 µM
- IC50 (PI3K δ): > 10 µM
- IC50 (PI3K α): > 10 µM

Compound: Nc1nc2ccc(-c3ccc4ncc(C(=O)N5CCOCC5)n4c3)cc2[nH]1 [Compound 15]
- IC50 (PI3K β): > 10 µM
- IC50 (PI3K γ): > 10 µM
- IC50 (PI3K δ): > 10 µM
- IC50 (PI3K α): < 1 µM

Compound: CN1CCN(CCc2nnc3ccc(-c4ccc5nc(N)oc5c4)cn23)CC1 [Compound 16]
- IC50 (PI3K β): > 10 µM
- IC50 (PI3K γ): > 10 µM
- IC50 (PI3K δ): > 10 µM
- IC50 (PI3K α): > 10 µM

Compound: Cc1cc(-c2ccc3nc(N)oc3c2)cn2c(N3CCN(C)CC3)nnc12 [Compound 17]
- IC50 (PI3K β): > 10 µM
- IC50 (PI3K γ): > 10 µM
- IC50 (PI3K δ): > 10 µM
- IC50 (PI3K α): > 10 µM

Compound: CN1CCN(Cc2nnc3ccc(-c4ccc5nc(N)oc5c4)cn23)CC1 [Compound 18]
- IC50 (PI3K β): > 10 µM
- IC50 (PI3K γ): > 10 µM
- IC50 (PI3K δ): > 10 µM
- IC50 (PI3K α): > 10 µM

Compound: Cc1cc(-c2ccc3nc(N)oc3c2)cn2c(CCN3CCN(C)CC3)nnc12 [Compound 19]
- IC50 (PI3K β): > 10 µM
- IC50 (PI3K γ): > 10 µM
- IC50 (PI3K δ): > 10 µM
- IC50 (PI3K α): > 10 µM

Compound: Cc1cc(-c2ccc3nc(N)oc3c2)cn2c(CN3CCN(C)CC3)nnc12 [Compound 20]
- IC50 (PI3K β): > 10 µM
- IC50 (PI3K γ): > 10 µM
- IC50 (PI3K δ): > 10 µM
- IC50 (PI3K α): > 10 µM

Compound: Nc1nc2cc(-c3ccc4ncc(C(=O)NCCOCCO)n4c3)ccc2o1 [Compound 21]
- IC50 (PI3K β): < 10 µM
- IC50 (PI3K γ): < 1 µM
- IC50 (PI3K δ): < 10 µM
- IC50 (PI3K α): < 1 µM

Compound: Nc1nc2cc(-c3ccc4ncc(C(=O)NCCOCC(=O)O)n4c3)ccc2o1 [Compound 22]
- IC50 (PI3K β): < 1 µM
- IC50 (PI3K γ): < 0.1 µM
- IC50 (PI3K α): < 0.1 µM

Reference: patent US9127000B2, “Heterocyclic compounds and uses thereof” (Intellikine, LLC., priority 2011, dated 2015)
